The test system of one data set is human sebaceous glands. Nature of the data set: Sebum control: micro-dissected cultured sebaceous glands, lipids normalized upon proteins. It counts as cell-based. To be noted: for sebum reduction: human sebaceous glands cultured six days, compared to untreated control, FIG. 2, single donor. The procedure:
Additional tests were performed with human sebaceous glands in order to verify the modulatory activity of different 1,2-alkanediols on sebum secretion. Several microbial species on the skin are lipid dependent and feed on the human sebum (e.g., Corynebacterium, Propionibacterium). Accordingly, sebum reduction can indirectly support the reduction of microorganisms on the skin and in this way also indirectly support e.g., dandruff or acne reduction. For these experiments sebaceous glands had been micro-dissected and cultured with medium. The medium without any supplement served as untreated control. The medium with 5 μM Capsaicin served as positive control. Additionally, the culture medium was supplemented with different concentrations of alkanediols. After six days the sebaceous glands were collected and lipids and proteins quantified. The total lipid amount being representative of sebum production was obtained by normalizing the quantified lipids upon the quantified proteins (i.e., mg of lipids/mg of proteins).

Data set [1] is described as follows: Maximum solubility of alkanediols in water. It counts as physicochemical. The conditions noted are these: ambient temperature after 24 h storage at 5° C.; visual observation.
Excerpt: For the determination of the maximum water solubility of an alkanediol, water and different concentrations of the respective alkanediol were blended by stirring. […] The determination of whether the alkanediol has dissolved in water is based entirely on visual observation.
In a further data set the test system is Staphylococcus aureus. Nature of the data set: Minimum Inhibitory Concentration (MIC) test and Kull synergy index. It counts as cell-based.
In another data set the test system is Escherichia coli. Nature of the data set: Minimum Inhibitory Concentration (MIC) test. It counts as cell-based. To be noted: single substance (Tables 1, 2). As to the method:
(§1) The Minimum Inhibitory Concentration (MIC) test is a test on growth inhibition. The estimation of MICs is executed in 96 well plates. Through the comparison of bacterial growth with positive and negative controls via optical density (OD), different concentrations of given test substances are evaluated. Bacteria were cultivated under adjusted conditions based on information of the German Collection of Microorganisms and Cell Cultures (DSMZ) and stored in 50% glycerol prior to use. Afterwards, the following method was applied: Growth medium (according to microorganism) was added to each well of the microplate. Then, the test-substances were added in different concentrations, positive controls (water controls only with medium) and negative controls (benchmarks according to organism). Finally, the microorganisms were added in a concentration of 10^6 CFU/ml (CFU=colony forming units). The incubation of the microplates was carried out at appropriate conditions. According to the resulting growth, substance concentrations are labelled either as inhibiting or not and MIC is defined as the lowest concentration where a complete growth inhibition is visible. Experiments at concentration limits (highest concentration labelled as growth and lowest concentration labelled as inhibiting) are performed at least twice.

The next data set relates to Corynebacterium jeikeium. Nature of the data set: Minimum Inhibitory Concentration (MIC) test. The conditions noted are these: single substance (Tables 1, 2). It counts as cell-based. As to the method:
as §1

Another data set concerns Propionibacterium acnes. Nature of the data set: Minimum Inhibitory Concentration (MIC) test. It counts as cell-based. The conditions noted are these: Cutibacterium acnes, single substance (Tables 1, 2). The procedure: as §1
For a further data set, the system named is Staphylococcus hominis. The data set is described as follows: Minimum Inhibitory Concentration (MIC) test. It counts as cell-based. The conditions noted are these: single substance (Tables 1, 2). The procedure: as §1
The test system of the next data set is Candida albicans. Nature of the data set: Minimum Inhibitory Concentration (MIC) test. The conditions noted are these: single substance (Tables 1, 2). It counts as cell-based. The procedure:
as §1

Where [2] appears, read: Table 3, Component B alone, read-out: MIC Component B in ppm.

Converted amounts (≈) assume the structure as drawn. Where two headings read alike, the source gives them in different places.

Take `CCCCCC(O)CO` (stereo not shown) [1,2-Heptanediol, 1,2-heptanediol]: in the data set on human sebaceous glands, the sebum reduction is given as 20%. For the same compound, in data set [1], the “Maximum solubility in water (% by weight)” value is given as 2.5 % by weight.

As for `CCCCC(O)CO` (stereo not shown) [1,2-Hexandiol, 1,2-hexanediol], in data set [1], the “Maximum solubility in water (% by weight)” value came to 50 % by weight.

Consider `CCCCCCCC(O)CO` (stereo not shown) [1,2-Nonanediol, 1,2-nonanediol], for which, in the data set on Staphylococcus aureus (Table 4, Component A alone), the “MIC Component A in ppm” value was determined as 1000 ppm. Besides, in the data set with human sebaceous glands (different concentrations, FIG. 3, single donor different from FIG. 2), the “concentration dependency of sebum reduction” value is recorded as “experimentally confirmed”. Moreover, the “Maximum solubility in water (% by weight)” value in data set [1] came out at 0.1 % by weight.

Regarding `CCCCCCC(O)CO` (stereo not shown) [1,2-Octandiol, 1,2-octanediol], the “Maximum solubility in water (% by weight)” value in data set [1] is 0.5 % by weight.

With `CCCCCCCCCC(O)CO` (stereo not shown) [1,2-Undecanediol, 1,2-undecanediol], the MIC in the data set with Staphylococcus aureus (single substance (Tables 1, 2), read-out: Minimum Inhibitory Concentration (MIC)) is 125 µg/mL; in the data set with Escherichia coli, 250 µg/mL (≈ 1330 µM); in the data set on Corynebacterium jeikeium, 250 µg/mL (≈ 1330 µM); with Propionibacterium acnes it was 250 µg/mL (≈ 1330 µM); in the data set with Staphylococcus hominis it was 125 µg/mL (≈ 664 µM); in the data set with Candida albicans, 64 µg/mL (≈ 340 µM). The sebum reduction with human sebaceous glands amounted to 45%.

As to `CCCCC(O)C(C)O` (stereo not shown) [2,3-Heptanediol, 2,3-heptanediol], the “Maximum solubility in water (% by weight)” value in data set [1] is reported as 3.6 % by weight.

As to `CCCCCCC(O)C(C)O` (stereo not shown) [2,3-Nonanediol, 2,3-nonanediol], the sebum reduction in the data set with human sebaceous glands amounted to 40%. The “Maximum solubility in water (% by weight)” value in data set [1] was found to be 0.3 % by weight.

Take `CCCCCC(O)C(C)O` (stereo not shown) [2,3-Octanediol, 2,3-octanediol]: in data set [1], the “Maximum solubility in water (% by weight)” value is on record as 1.5 % by weight.

For the compound `OCc1ccccc1` [Benzyl Alcohol], the MIC in the data set with Staphylococcus aureus (setting [2]) was found to be 5000 µg/mL. For the same compound, the “MIC Component B in ppm” value with Staphylococcus aureus (Table 4, Component B alone) came out at 5000 ppm.

Consider `CCCCCCCC(=O)NO` [Caprylhydroxamic acid], for which, in the data set on Staphylococcus aureus (setting [2]), the MIC stood at 1000 µg/mL. Further, in the data set on Staphylococcus aureus (Table 4, Component B alone), the “MIC Component B in ppm” value was found to be 1000 ppm.

Regarding `CC(C)(C)C(=O)C(Oc1ccc(Cl)cc1)n1ccnc1` (stereo not shown) [Climbazole], the MIC in the data set on Staphylococcus aureus (setting [2]) stood at 250 µg/mL.

Regarding `CCCCC(CC)COCC(O)CO` (stereo not shown) [Ethylhexylglycerin], the “MIC Component B in ppm” value in the data set with Staphylococcus aureus (Table 3, Component B alone) is recorded as 2000 ppm.

With `CCCCCCCC(=O)OCC(O)CO` (stereo not shown) [Glyceryl caprylate], the MIC with Staphylococcus aureus (setting [2]) turned out to be 2500 µg/mL.

Source of the values: patent US20230293409A1, “Compositions Comprising Antimicrobials and (Bio)-Alkanediols for Skin Protection” (Symrise AG, priority 2020, published 2023).
